Source: patent US11077090B2, “Compounds and compositions and uses thereof” (Sunovion Pharmaceuticals Inc., priority 2016, dated 2021)
Like-named read-outs stand apart in the source and are kept apart here.

Key:
Type in all cases: in vivo
Male C57Bl/6J mice [1] = experiment: Marble burying test; set-up: key: −: No reduction in number of marbles buried; +: Significant reduction in number of marbles buried (P < 0.05 vs vehicle)
Protocol: The marble burying assay is used to evaluate the anxiolytic activity of a test compound. After placement in a novel cage containing glass marbles, mice will bury the marbles. Acute administration of anxiolytic agents, as well as antidepressants, decrease this activity at non-sedating doses. Male C57Bl/6J mice from Jackson Laboratories were used in this study and were acclimatized to the experimental room for at least 1 hour prior to testing. Mice (n=10 per group) were administered sterile water or test compound intraperitoneally (i.p.) or orally by gavage (p.o.), or the positive control chlordiazepoxide (15 mg/kg, i.p.), in 10 mL/kg injection volumes, and returned to their home cages for a 30-minute pretreatment period. The mice were then placed individually in clean cages, containing hard wood bedding and twenty black marbles placed in spaced rows of 4×5. After a 30-minute test session, the number of buried marbles was counted. A marble was considered buried if it was pushed at least two thirds into the bedding. Locomotor activity was monitored by measuring the distance traveled using an overhead camera and Video Tracker Software (ViewPoint Life Sciences Software, France). A reduction in the number of marbles buried relative to the vehicle condition indicates an anxiolytic drug-like effect.

Male C57Bl/6J mice [2] = experiment: Prepulse inhibition of startle (PPI); set-up: key: −: No change in PPI; +: Significant increase in PPI at one pre-pulse intensity (P < 0.05 vs vehicle); ++: Significant increase in PPI at two pre-pulse intensities (P < 0.05 vs vehicle); +++: Significant increase in PPI at three pre-pulse intensities (P < 0.05 vs vehicle); conditions: 3 mg/kg PO
Text: The acoustic startle is an unconditioned reflex response to an external auditory stimulus. Prepulse inhibition of startle (PPI) refers to the reduction in the startle response caused by the presentation of a low-intensity auditory stimulus prior to the startle stimulus. The PPI paradigm is used for the study of schizophrenia and antipsychotic action due to the similarities between the results from human and rodent studies. PPI has been used as a tool for the assessment of deficiencies in sensory-motor gating observed in schizophrenia and to screen for potential antipsychotic drugs. Various psychotomimetic drugs, such as phencyclidine (PCP), can disrupt PPI. In mice, antipsychotic drugs such as haloperidol can increase PPI and clozapine can reverse the disruption of PPI induced by PCP.
Male C57Bl/6J mice from Jackson Laboratories were placed in the PPI chambers (Med Associates) for a 5 min session of white noise (70 dB) habituation. After the habituation period, the test session was initiated. The session started with a habituation block of 6 presentations of the startle stimulus alone, followed by 10 PPI blocks, each of which consisted of 6 different types of trials. Trial types were: ‘null’ (no stimuli), ‘startle’ (120 dB), ‘startle plus prepulse’ (4, 8, and 12 dB over background noise, i.e., 74, 78, or 82 dB) and ‘prepulse’ (82 dB). Trial types were presented in a random order within each block. Each trial started with a 50 ms stimulus-free period during which baseline movements were recorded. This was followed by a subsequent 20 ms period during which the prepulse stimulus was presented and responses to the prepulse measured. After a further 100 ms period, the startle stimulus was presented for 40 ms and responses recorded for 100 ms from startle onset. Responses were sampled every ms. The inter-trial interval was variable with an average of 15 s (range from 10 to 20 s). In ‘startle’ trials, the basic auditory startle response was measured. The basic startle response was calculated as the mean startle response of all ‘startle’ trials (i.e., excluding the first habituation block). In ‘startle plus prepulse’ trials, the degree of inhibition of the normal startle was calculated and expressed as a percentage of the basic startle response.
Mice were treated with vehicle or test compound orally by gavage, or haloperidol (1 mg/kg, i.p.), in 10 mL/kg injection volumes, 30 min prior to PPI test. The PPI enclosures were cleaned following each test. An increase in the percent PPI relative to the vehicle condition indicates an antipsychotic drug-like response.

Adult male AJ mice = experiment: Tail suspension test (TST); set-up: key: −: No decrease in Mean Total Time Immobile; +: Significant decrease in Mean Total Time Immobile (P < 0.05 vs vehicle); conditions: 3 mg/kg PO
Text: The tail suspension test (TST) is a rodent screening test for potential (human) antidepressant drugs. It is based on the assumption that an animal will actively try to escape an aversive (stressful) stimulus. If escape is impossible, the animal will eventually stop trying (“give up”). In the TST, a mouse is suspended by the tail so that its body dangles in the air, head downward. Mice initially struggle to face upward and climb to a solid surface. When the animal stops struggling and hangs immobile it is considered to have “given up”. Shorter periods of immobility are characteristic of antidepressant-like activity. Accordingly, longer periods of immobility are considered indicative of a depressive-like state. It has been shown that treatment with an antidepressant drug will decrease the time the animal spends immobile. See generally L. Steru et al., Psychopharmacology (Berl). 1985; 85(3):367-70; B. Thierry et al., Psychopharmacology 1986; 90:284-85.
Adult male AJ mice from Jackson Laboratories received vehicle (sterile water) or test compound orally by gavage, or the positive control desipramine (20 mg/kg, i.p.), in 10 mL/kg injection volumes, 30 min before being subjected to the Tail Suspension Test. In this test, mice are placed in the Tail Suspension chambers (white polyvinylchloride cubicles measuring 33×33×31.75 cm Med Associates, Inc. St. Albans, Vt.) by a piece of transparent (Scotch®) tape attached to the tail, from about the mid-tail, with approximately 2 cm of tape past the end of the tail for 10 min during which the time spent immobile is measured. A reduction in total time immobile relative to the vehicle condition indicates an antidepressant drug-like response.

Male C57Bl/6J mice [3] = experiment: Amphetamine induced hyperlocomotion assay; set-up: key: #: Significant increase in total distance traveled (P < 0.05 vs vehicle + AMPH group); −: No change in total distance traveled; Significant decrease in total distance traveled (P < 0.05 vs vehicle + AMPH group); conditions: 3 mg/kg PO Compound + AMPH
Protocol: Psychostimulants such as amphetamine (AMPH) are frequently used to induce or mimic a manic-like or psychotic-like state. AMPH administration to rodents increases horizontal locomotion, vertical rearing and repetitive stereotyped behaviors, and typical antipsychotic drugs, such as haloperidol, can reduce these behaviors. The antimanic/antipsychotic-like effects of test compounds were evaluated in male C57Bl/6J mice from Jackson Laboratories Mice were acclimatized to the experimental room for at least 1 hour prior to testing. The mice (n=10 per group) were administered vehicle or test compound orally by gavage (10 mL/kg injection volume) and placed individually in the novel open field (OF) chambers (Med Associates) for 30 minutes of baseline activity measurement. Mice were then injected with either water or AMPH (4 mg/kg, i.p., 10 mL/kg) and placed back in the same individual OF chambers for a 60-minute testing session during which the effects of test compounds on stimulant-induced behaviors (total distance traveled, rearing and stereotypy) were measured. A reduction in total distance traveled relative to the vehicle+AMPH condition indicates an antimanic/antipsychotic drug-like response.

compound-treated mice = experiment: Neuropharmacological assay (SmartCube): behavioral activity signature and minimal effective dose; conditions: for Potency: minimal effective dose (MED), binned / minimal effective dose: MED = dose having 50% or more total activity; for AD: ADHD (probability of activity signature) / AG: analgesic (probability of activity signature) / AX: anxiolytic (probability of activity signature) / CE: cognitive enhancer (probability of activity signature) / DP: anti-depressant (probability of activity signature) / MS: mood stabilizer (probability of activity signature) / PS: anti-psychotic (probability of activity signature) / SD: sedative hypnotic (probability of activity signature) / UN: uncharacterized CNS activity (probability of activity signature): i.p. 15 min before test, most efficacious dose(s); for minimal effective dose: Mus musculus, ip
Outline: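 Mice dosed i.p. 15 min before test, compound in N-methyl-2-pyrrolidone/PEG/propylene glycol, 3 doses; video-captured behavior matched to reference-drug signatures, giving per-class probabilities at most efficacious dose. MED from doses typically 0.3–30 mpk, defined as lowest dose with ≥50% total activity.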

SMILES | Effect on Pre-Pulse Inhibition (PPI) (Male C57Bl/6J mice [2]) | Mean Total Time Immobile (Adult male AJ mice) | Total Distance Traveled (Male C57Bl/6J mice [3]) | AD: ADHD (probability of activity signature) (compound-treated mice) | AG: analgesic (probability of activity signature) (compound-treated mice) | AX: anxiolytic (probability of activity signature) (compound-treated mice) | CE: cognitive enhancer (probability of activity signature) (compound-treated mice) | DP: anti-depressant (probability of activity signature) (compound-treated mice) | MS: mood stabilizer (probability of activity signature) (compound-treated mice) | PS: anti-psychotic (probability of activity signature) (compound-treated mice) | SD: sedative hypnotic (probability of activity signature) (compound-treated mice) | UN: uncharacterized CNS activity (probability of activity signature) (compound-treated mice) | further results
CC[C@@H]1OCc2ccccc2[C@H]1N (single isomer, unassigned) [Compound 195] |  |  |  |  |  |  |  |  |  |  |  |  | Marbles Buried (Male C57Bl/6J mice [1]; 1 mg/kg (i.p.)): −
Cc1ccc2c(c1)[C@H](N)COC2 [Compound 123] | − | − | # |  |  |  |  |  |  |  |  |  | Marbles Buried (Male C57Bl/6J mice [1]; 3 mg/kg (p.o.)): −
C[C@@H]1OCc2cccc(Cl)c2[C@H]1N (single isomer, unassigned) [Compound 160] |  |  |  |  |  |  |  |  |  |  |  |  | Marbles Buried (Male C57Bl/6J mice [1]; 1 mg/kg (i.p.)): −
N[C@H]1COCc2ccc(F)cc21 (single isomer, unassigned) [Compound 114] | − | − | − |  |  |  |  |  |  |  |  |  | Marbles Buried (Male C57Bl/6J mice [1]; 1 mg/kg (p.o.)): −
N[C@H]1COCc2ccc3ccccc3c21 (single isomer, unassigned) [Compound 118] | − | − | − |  |  |  |  |  |  |  |  |  | Marbles Buried (Male C57Bl/6J mice [1]; 3 mg/kg (p.o.)): −
CC[C@@H]1OCc2ccccc2[C@H]1N (single isomer, unassigned) [Example 195] |  |  |  | + (LOQ ≤ + <5%) | ++ (5% ≤ ++ <25%) | ++ (5% ≤ ++ <25%) | ++ (5% ≤ ++ <25%) | ++ (5% ≤ ++ <25%) | + (LOQ ≤ + <5%) | ++ (5% ≤ ++ <25%) | ++ (5% ≤ ++ <25%) | ++++ (50% ≤ ++++) | Potency: minimal effective dose (MED), binned (compound-treated mice): A (≤3 mpk); Marbles Buried (Male C57Bl/6J mice [1]; 3 mg/kg (i.p.)): −; Marbles Buried (Male C57Bl/6J mice [1]; 10 mg/kg (i.p.)): +
N[C@@H]1COCc2ccc3ccccc3c21 (single isomer, unassigned) [Compound 117] | − | − | − |  |  |  |  |  |  |  |  |  | Marbles Buried (Male C57Bl/6J mice [1]; 1 mg/kg (p.o.)): −
C[C@@H]1OCc2cccc(Cl)c2[C@H]1N (single isomer, unassigned) [Example 160] |  |  |  | + (LOQ ≤ + <5%) | ++ (5% ≤ ++ <25%) | ++ (5% ≤ ++ <25%) | ++ (5% ≤ ++ <25%) | + (LOQ ≤ + <5%) | + (LOQ ≤ + <5%) | ++ (5% ≤ ++ <25%) | + (LOQ ≤ + <5%) | +++ (25% ≤ +++ <50%) | Potency: minimal effective dose (MED), binned (compound-treated mice): A (≤3 mpk); Marbles Buried (Male C57Bl/6J mice [1]; 3 mg/kg (i.p.)): −; Marbles Buried (Male C57Bl/6J mice [1]; 10 mg/kg (i.p.)): +
Cc1ccc2c(c1)[C@@H](C)OC[C@H]2N [Example 221] |  |  |  | + (LOQ ≤ + <5%) | + (LOQ ≤ + <5%) | ++ (5% ≤ ++ <25%) | + (LOQ ≤ + <5%) | ++ (5% ≤ ++ <25%) | + (LOQ ≤ + <5%) | ++ (5% ≤ ++ <25%) | + (LOQ ≤ + <5%) | ++++ (50% ≤ ++++) | minimal effective dose (compound-treated mice; read-out: Potency: minimal effective dose (MED), binned): 3 to 10 mg/kg
NC1COCc2ccc(F)cc21 (centres unmarked) [Example 6] |  |  |  | + (LOQ ≤ + <5%) | ++ (5% ≤ ++ <25%) | ++ (5% ≤ ++ <25%) | + (LOQ ≤ + <5%) | ++ (5% ≤ ++ <25%) | + (LOQ ≤ + <5%) | + (LOQ ≤ + <5%) | ++ (5% ≤ ++ <25%) | ++++ (50% ≤ ++++) | minimal effective dose (compound-treated mice; read-out: Potency: minimal effective dose (MED)): 3 to 10 mg/kg
